Data set [1] deals with T1, recombinant human ALX receptor (Homo sapiens, UniProt P25090).
T1 construct: expressed in transfected cells; host or cells: HEK293 (HEK293-hALXR-Gα16)
T1 sequence (P25090 1-351): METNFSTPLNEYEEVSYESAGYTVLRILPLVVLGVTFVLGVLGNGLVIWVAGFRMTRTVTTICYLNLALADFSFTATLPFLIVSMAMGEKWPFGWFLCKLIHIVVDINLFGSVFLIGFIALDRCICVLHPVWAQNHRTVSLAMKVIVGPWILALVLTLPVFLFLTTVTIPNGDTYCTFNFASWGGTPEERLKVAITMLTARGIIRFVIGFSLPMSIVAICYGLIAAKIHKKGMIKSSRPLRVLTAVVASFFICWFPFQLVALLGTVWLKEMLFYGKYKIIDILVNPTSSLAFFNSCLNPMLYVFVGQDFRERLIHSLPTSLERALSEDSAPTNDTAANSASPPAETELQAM
As to the kind of experiment: Intracellular calcium measurements (FLIPR), ALX receptor agonistic activity. In kind it is cell-based. Conditions: HEK293-hALXR-Gα16 cells; median of n replications; normalized to WKYMVm 10 nM; read-out: EC50, agonistic activity with respect to the ALX receptor. The method, then: The ALX receptor agonistic activity of the compounds of formula (I) is determined in accordance with the following experimental method.
Intracellular Calcium Measurements:
Cells expressing recombinant human ALX receptor and the G-protein Gα16 (HEK293-hALXR-Gα16) were grown to 80% confluency in Growing Medium (GM). Cells were detached from culture dishes with a cell dissociation buffer (Invitrogen, 13151-014), and collected by centrifugation at 1′000 rpm at rt for 5 min in Assay Buffer (AB) (equal parts of Hank's BSS (Gibco, 14065-049) and DMEM without Phenol Red (Gibco, 11880-028)). After 60 min incubation at 37° C. under 5% CO2 in AB supplemented with 1 μM Fluo-4 (AM) (Invitrogen, F14202) and 20 mM HEPES (Gibco, 15630-056), the cells were washed and resuspended in AB. They were then seeded onto 384-well FLIPR assay plates (Greiner, 781091) at 50′000 cells in 70 μl per well and sedimented by centrifugation at 1′000 rpm for 1 min. Stock solutions of test compounds were made up at a concentration of 10 mM in DMSO, and serially diluted in AB to concentrations required for activation dose response curves. WKYMVm (Phoenix Peptides) was used as a reference agonist. […] Changes in fluorescence were monitored before and after the addition of test compounds at lex=488 nm and lem=540 nm. […]

A short description of data set [2]: Plasma stability assay, rat serum. In kind it is in vitro ADME. How it is done: (§1) Rat or human serum adjusted at pH 7.4 with lactic acid or ammonium hydroxide, were equilibrated at 37° C. under orbital shaking in an incubator containing 5% CO2. The reaction was initiated by the addition of 1 μM of compounds (1.5 μl of 1 mM stock solution in DMSO in 1498.5 μl of plasma). At 0.01, 0.25, 0.5, 1, 2, 3, 4 and 6 h, aliquots (100 μl) were transferred in a 96 well plate containing 300 μl MeOH placed on ice to stop the reaction. After vortexing for 20 min at 1400 rpm on an Eppendorf thermomixer, the plates were centrifuged at 3220 g for 20 min at 4° C. and the supernatants were analyzed with LC-MS/MS. Calibration samples in plasma containing 0.1% of dichlorvos were prepared and analysed in parallel to the incubation samples to allow the quantification. Half lives (T1/2) in hours were then calculated. In addition the remaining concentration of the respective compound after time Tlast relative to the concentration at the beginning has been determined (table 2).

The nature of data set [3]: Plasma stability assay, human serum. In kind it is in vitro ADME. How it is done:
as §1

pEC50: −log10 of the molar value.

For the compound `Cc1ccc(C2(NC(=O)C3C(C(=O)NCCN4CCN(C)CC4)C4CCC3C43CC3)CC2)cc1` [Example 1, (5R)-N^5-(1-(p-tolyl)cyclopropyl)-(6R)-N^6-(2-(4-methylpiperazin-1-yl)ethyl)-(4S,7R)-[4,7-ethylene-spiro[2.4]heptane]-5,6-dicarboxamide], the pEC50 in data set [1] was 8.03. Also, the “remaining concentration at Tlast” value is on record as 100% in data set [2] (Tlast 6 h, 1 μM, 37° C.) and 82% in data set [3] (Tlast 6 h, 1 μM, 37° C.). The half-life at 1 μM in data set [2] (pH 7.4, 37° C.) is greater than 6 h; in data set [3] (pH 7.4, 37° C.) it was greater than 6 h.

For the origin of these results see US9533964B2, “Piperazine substituted bridged spiro[2.4]heptane derivatives as ALX receptor agonists” (Actelion Pharmaceuticals Ltd, priority 2013, dated 2017).
